Measured values reported in PMC6348444, “New Water-Soluble Copper(II) Complexes with Morpholine–Thiosemicarbazone Hybrids: Insights into the Anticancer and Antibacterial Mode of Action” (Journal of Medicinal Chemistry, 2018).
Like-named read-outs stand apart in the source and are kept apart here. Marks after values point to notes of the source that are not given here.

Experiments:
A2780 cells [1] = assay: Cellular accumulation of Cu by ICP-MS; format: cell-based, human; conditions: 24 h exposure
Excerpt: The ability of anticancer drugs to penetrate biological membranes, tissues, and barriers underlies their biological, pharmacokinetic, and metabolic properties. These properties can be predicted by calculating physicochemical characteristics of drug candidates using molecular descriptors.[30] […] The results are shown in Table S7 in the Supporting Information. On the basis of the calculated physicochemical parameters, we determined if novel compounds belonged to the drug-like chemical space, which is commonly defined by the well-known Lipinski rule, or to the known drug space (KDS), which includes all small compounds in medical use.[31] […] Following the calculations, we determined the lipophilicity of all compounds experimentally (log D7.4, Tables 1 and 2). It is known that cancer cells accumulate hydrophilic compounds to a smaller extent relative to hydrophobic compounds, thereby affecting their activity. […] As expected, proligands were more lipophilic than the corresponding Cu(II) species, which are positively charged at physiological pH (Figure 3b). […] The lipophilicity of 2–5 increased in the following order 4 < 2 < 3 < 5, and correlated well with their cytotoxicity in cancer cells, with the exception of 3. Subsequently, we determined the total cellular accumulation of Cu in A2780 cells by ICP–MS upon 24 h exposure to 1–6 in comparison with CuCl2 (Table 2). […] The accumulation increased in the order 6 < 1 < 3 < 4 < 2 < 5.
Cellular accumulation of 1–6 was determined in A2780 cells. Cells were seeded into Cellstar 6-well plates (Greiner Bio-one) at a density of 60 × 10^4 cells/well (2 mL per well). After the cells were allowed to resume exponential growth for 24 h, they were exposed to 1–6 at 1 μM for 24 h at 37 °C. The cells were washed twice with 1 mL of PBS and lysed with RIPA lysis buffer for 5–10 min at 4 °C. The cell lysates were scraped from the wells and transferred to separate 1.5 mL microtubes. The supernatant was then collected after centrifugation (13 000 rpm, 4 °C for 15 min) and total protein content of each sample was quantified via Bradford’s assay. Cell lysates were transferred to 2 mL glass vials and then digested with ultrapure 65% HNO3 at 100 °C for 24 h. The resulting solution was diluted to 1 mL (2–4% v/v HNO3) with ultrapure Milli-Q water. Cu content of each sample was quantified by ICP–MS. In was used as an internal standard. Cu and In were measured at m/z 64 and m/z 115, respectively. Metal standards for calibration curve (0, 0.5, 1, 2, 5, 10, 20, and 40 ppb) were freshly prepared before each measurement. All readings were made in triplicates in He mode. For temperature-dependent cellular accumulation experiments, A2780 cells were seeded into 35 n 10 mm tissue culture plates at a density of 60 0 10^4 cells/plate. After the cells were allowed to resume exponential growth for 24 h, they were exposed to 2 at 3 μM for 10, 30, 60, and 120 min at 37 and 4 °C. The subsequent analysis was performed as described above. For energy-dependent experiments, A2780 cells were seeded into 35 5 10 mm tissue culture plates at a density of 1 0 10^6 cells/plate. After the cells were allowed to resume exponential growth for 24 h, they were preincubated with oligomycin (5 μM) for 1 or 4 h or with cycloheximide (100 μM) for 4 h and further co-incubated with 3 μM of 2 at 37 °C. To induce total starvation, after the cells were allowed to resume exponential growth for 24 h, RPMI media was replaced with HBSS, and cells were preincubated in HBSS for 1 h and further incubated with 3 μM of 2 for 1 h at 37 °C. The subsequent analysis was performed as described above.

A2780 cells [2] = assay: MTT cytotoxicity assay, A2780; format: cell-based, human
A2780cisR cells = assay: MTT cytotoxicity assay, A2780cisR; format: cell-based, human; conditions: for RF (resistance factor): IC50(A2780cisR)/IC50(A2780); for IC50: MTT assay, 72 h exposure, cisplatin-resistant A2780cisR, read-out: IC50 A2780cis
HEK293 cells = assay: MTT cytotoxicity assay, HEK293; format: cell-based, human; conditions: for SF (selectivity factor): IC50(HEK293)/IC50(A2780); for IC50: MTT assay, 72 h exposure, noncancerous cells
A2780 cells [3] = assay: Annexin V/PI apoptosis assay; format: cell-based, human; conditions: A2780, concentration corresponding to Cu content in 2 at 2IC50
Excerpt: To elucidate if observed cytotoxicity of new compounds described in this study was a result of apoptosis induction, we conducted Annexin V/PI apoptosis assay. In brief, fluorochrome-labeled Annexin V reagent is used for detection of membrane phosphatidylserine (PS), which translocates to the cellular surface from the inner side of plasma membrane in the event of early apoptosis. Simultaneously, PI is used for detection of later stages of apoptosis or necrosis, which are characterized by loss of membrane integrity and accumulation of PI inside the cells. […] Results are illustrated in Figure 9. Upon incubation of A2780 cells with increasing concentrations of HL^2 and 2, the dose-dependent increase of apoptotic cells was observed.
A2780 cells were seeded into Cellstar 12-well plates (Greiner Bio-One) at a density of 20 × 10^4 cells/well (1 mL per well). The cells were allowed to resume exponential growth for 24 h and subsequently they were exposed to HL^2 and 2 at different concentrations for 24 h. After the supernatant solution was collected in 1.5 mL microtubes, the cells were washed with 100 μL of trypsin, which was combined with the supernatant. Subsequently, cells were trypsinized with 200 μL of trypsin for 5 min at 37 °C, 5% CO2, washed with 200 μL of PBS, and combined with the supernatant. The cells were centrifuged at 2.5 × 10^3 rpm for 5 min and the pellets were washed once with PBS and resuspended in 500 μL of Annexin V binding buffer and stained with Annexin V-FITC and PI reagents. The fluorescence was immediately analyzed by flow cytometry. The resulting dot blots were acquired from 10 000 events and quantified using Flowjo software (Flowjo LLC, Ashland, OR, USA).

Solubility in water = format: physicochemical; conditions: sterile water stock solutions
Method: Human ovarian carcinoma cells A2780 and A2780cisR and human embryonic kidney HEK293 were obtained from ATCC. A2780 and A2780cisR cells were cultured in RPMI 1640 medium containing 10% FBS. HEK293 were cultured in DMEM medium containing 10% FBS. All cells were grown in tissue culture 25 cm^2 flasks (BD Biosciences, Singapore) at 37 °C in a humidified atmosphere of 95% air and 5% CO2. All drug stock solutions were prepared in sterile water. The amount of Cu was determined by ICP–OES.

[4] = system: Pseudomonas aeruginosa PAO1 CECT 4122 (ATCC 15692); assay: MIC microdilution, P. aeruginosa; format: cell-based; conditions: planktonic cells; for P. aeruginosa MIC50: growth inhibited at 50%; for P. aeruginosa MIC100: lowest concentration completely inhibiting growth
Method: (§1) Wild-type P. aeruginosa PAO1 strain CECT 4122 (ATCC 15692) and S. aureus CECT 86 (ATCC 12600) were obtained from the Spanish Type Culture Collection (CECT). All strains were routinely cultivated in TSB medium (Sharlab, Spain) at 37 °C. MIC assays were determined by the microdilution method using TSB broth following the method described by the Clinical and Laboratory standards Institute.[94] In brief, compounds were diluted in a 96-well microtiter plate (tissue culture-treated polystyrene; […]

[5] = n-octanol/water distribution coefficient, shake-flask; format: physicochemical; conditions: n-octanol/buffered aqueous solution, pH 7.40, UV-vis
Method: The titrations were carried out under a nitrogen atmosphere.

[6] = system: Staphylococcus aureus CECT 86 (ATCC 12600); assay: MIC microdilution, S. aureus; format: cell-based; conditions: planktonic cells; for S. aureus MIC50: growth inhibited at 50%; for S. aureus MIC100: lowest concentration completely inhibiting growth
Method: as §1

[7] = Cyclic voltammetry, redox potentials; format: physicochemical; conditions: first reduction step; for E1/2 Red1 (DMSO) vs NHE / E1/2 Red1 (MeOH) vs NHE: vs NHE (in brackets)
Method: To assess the redox properties of 1-6, detailed electrochemical and spectroscopic studies in various solvents were performed using cyclic voltammetry as well as EPR-spectroelectrochemistry. Additionally, the UV-vis spectra of 1-5 were measured (Figure S8). […] The second reduction step occurred at -1.8 V versus Fc^+/Fc (-1.16 V vs NHE) and was less reversible, indicating a ligand-based reduction. […] In aqueous solutions, the reduction potentials shifted to the less negative values, and reduction was less reversible as shown for 2 in Figure S10. […] Cyclic voltammetric experiments were performed as described previously.[46] The cyclic voltammograms were measured in the cathodic region in different solvents (DMSO, methanol, DMSO/H2O). The analytical purity grade LiClO4 (Sigma-Aldrich) and distilled and deionized water were used for preparation of 1 mM aqueous solutions of the investigated complexes 1-6. EPR spectra were recorded with the EMX plus. In situ UV-vis-NIR spectroelectrochemical measurements were performed on a spectrometer (Avantes, Model AvaSpec-2048x14-USB2 in the spectroelectrochemical cell kit ([…]3)) with the Pt-microstructured honeycomb working electrode, purchased from Pine Research Instrumentation. The cell was positioned in the CUV-UV Cuvette Holder (Ocean Optics) connected to the diode-array UV-vis-NIR spectrometer by optical fibers. UV-vis-NIR spectra were processed using the AvaSoft 7.7 software package. Halogen and deuterium lamps were used as light sources (Avantes, Model AvaLight-DH-S-BAL). The in situ EPR spectroelectrochemical experiments were carried out under an argon atmosphere in the EPR flat cell equipped with a large platinum mesh working electrode. The freshly prepared solutions were carefully purged with argon and the electrolytic cell was polarized in the galvanostatic mode directly in the cylindrical EPR cavity TM-110 (ER 4103 TM), and the EPR spectra were measured in situ.

mouse R2 RNR protein = biological target: T1, mouse R2 RNR protein (Mus musculus, UniProt P11157); parameters: method as in PMID 21955844; conditions: mouse R2, after 5 min, same experimental conditions; cited from earlier work
T1 construct: made in house; host or cells: Escherichia coli
T1 sequence (P11157 1-390): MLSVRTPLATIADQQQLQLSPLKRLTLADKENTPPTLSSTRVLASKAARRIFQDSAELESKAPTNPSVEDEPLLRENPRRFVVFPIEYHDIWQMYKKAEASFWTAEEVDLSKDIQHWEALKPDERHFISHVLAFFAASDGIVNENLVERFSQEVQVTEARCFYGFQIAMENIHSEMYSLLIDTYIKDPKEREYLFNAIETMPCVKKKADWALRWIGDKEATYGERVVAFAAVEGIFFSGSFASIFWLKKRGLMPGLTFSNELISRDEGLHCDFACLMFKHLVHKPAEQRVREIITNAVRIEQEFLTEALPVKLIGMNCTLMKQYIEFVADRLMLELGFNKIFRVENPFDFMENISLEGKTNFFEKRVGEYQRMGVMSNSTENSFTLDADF

SMILES	IC50 (A2780 cells [2]; 72 h exposure)	RF (resistance factor) (A2780cisR cells)	IC50 (A2780cisR cells)	SF (selectivity factor) (HEK293 cells)	IC50 (HEK293 cells)	solubility in water (Solubility in water)	P. aeruginosa MIC50 [4]	P. aeruginosa MIC100 [4]	log D7.4 [5]	S. aureus MIC50 [6]	S. aureus MIC100 [6]	E1/2 Red1 (DMSO) vs Fc+/Fc [7]	E1/2 Red1 (DMSO) vs NHE [7]	E1/2 Red1 (MeOH) vs Fc+/Fc [7]	E1/2 Red1 (MeOH) vs NHE [7]	cellular accumulation A2780 (A2780 cells [1]; 1 μM)	further results
[Cl][Cu][Cl] [CuCl2, reference compound]	83000 ± 12000 nM	1.0	82 ± 3 µM	2.3	187 ± 37 µM												cellular accumulation A2780 (A2780 cells [1]; 2.5 μM): 0.17 ± 0.05 ^f nmol Cu/mg protein; induction of apoptosis (A2780 cells [3]): no induction of apoptosis was detected
NC(=NN=Cc1ccc(CN2CCOCC2)cn1)[S][Cu][Cl] [complex 1, [Cu(L^1)Cl]]	2200 ± 100 nM	5.9	13 ± 4 µM	7.3	16 ± 2 µM	≤ 2 mM	NA (NA denotes no antibacterial activity detected (>500 μg/mL))	NA (NA denotes no antibacterial activity detected (>500 μg/mL))	–0.81 ± 0.04	100 µg/mL	>500 µg/mL	–0.81 V	–0.17 V	–0.57 V	+0.07 V	0.63 ± 0.09 nmol Cu/mg protein	
[Cl][Cu][S]C(=NN=Cc1ccc(CN2CCOCC2)cn1)N1CCCC1 [complex 3, [Cu(L^3)Cl]]	260 ± 20 nM	2.3	0.6 ± 0.05 µM	3.0	0.78 ± 0.2 µM	0.3 mM	100 µg/mL	400 µg/mL	+0.86 ± 0.02	3 µg/mL	10 µg/mL	–0.80 V	–0.16 V	–0.49 V	+0.15 V	2.2 ± 0.6 nmol Cu/mg protein	
NC(=S)N/N=C/c1ncccc1N [triapine, 3-amino-2-pyridinecarboxaldehyde TSC, reference compound]				0.6													IC50 (A2780 cells [2]; Homo sapiens, A2780, 72 h exposure): 670 ± 220 nM; IC50 (A2780cisR cells; Homo sapiens): 1.1 ± 0.1 µM; IC50 (HEK293 cells; Homo sapiens, HEK293): 0.39 ± 0.05 µM; tyrosyl radical loss (mouse R2 RNR protein): 100%
